Assay [1] is described as follows: Effective concentration in vitro against rabbit urethra Alpha-1 adrenergic receptor.
Assay [2] can be described thus: Effective concentration in vitro against rabbit urethra Alpha-1A adrenergic receptor.

On to `COc1ccc(OC)c(C(O)CN)c1` (stereo not drawn), for which, in assay [1], a half-maximal effect (EC50) was put at 7.1 µM.
In assay [1], `CC(N)C(O)c1ccccc1` [(1R, 2S)-2-Amino-1-phenyl-propan-1-ol] gave an EC50 of 230 µM.
Consider `CCS(=O)(=O)Nc1cccc(Cc2cnc[nH]2)c1` [ABT-866], for which, in assay [2], a half-maximal response (EC50) required 0.6 µM.

For the origin of these results see BindingDB's records for doi:10.1021/jm025550h (Abbott Laboratories, 2002).
